Test system: NCI/ADR-RES complex spheroid viability
Test: Anticancer human tumor NCI/ADR-RES cell line growth inhibition;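 note: spheroids exposed to compounds for 7 days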;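 for viability, T/C: 100% = DMSO vehicle treated spheroids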
Settings: for IC50: curve of first compound; for viability, T/C: stronger effect = lower value; active = viability on the fitted dose curve at most 10% of control; inactive = the rest
Summary of the method: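 Drug combinations with the LSD1 inhibitor iadademstat tested on tumor cells co-cultured as spheroids with endothelial cells and mesenchymal stem cells. Concentrations descended in half-log increments from clinical Cmax or 10 microM.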

[1] = second compound 0.1 µM, first compound 0.0316 µM
[2] = second compound 0.1 µM, first compound 0.1 µM
[3] = second compound 0.1 µM, first compound 0.316 µM
[4] = second compound 0.1 µM, first compound 1 µM
[5] = second compound 0.316 µM, first compound 0.0316 µM
[6] = second compound 0.316 µM, first compound 0.1 µM
[7] = second compound 0.316 µM, first compound 0.316 µM
[8] = second compound 0.316 µM, first compound 1 µM
[9] = second compound 1 µM, first compound 0.0316 µM
[10] = second compound 1 µM, first compound 0.1 µM
[11] = second compound 1 µM, first compound 0.316 µM
[12] = second compound 1 µM, first compound 1 µM
[13] = second compound 3.16 µM, first compound 0.0316 µM
[14] = second compound 3.16 µM, first compound 0.1 µM
[15] = second compound 3.16 µM, first compound 0.316 µM
[16] = second compound 3.16 µM, first compound 1 µM
[17] = second compound 10 µM, first compound 0.0316 µM
[18] = second compound 10 µM, first compound 0.1 µM
[19] = second compound 10 µM, first compound 0.316 µM
[20] = second compound 10 µM, first compound 1 µM

COc1ccc([C@@H](O)c2cc(-c3ncnc4cc(N5CCOCC5)ccc34)c(F)cc2Cl)nn1 + NC1CC1c1ccc(-c2cccc(O)c2)cc1
1.94 µM: IC50 (second compound 10 µM)
3.23 µM: IC50 (second compound 1 µM)
3.24 µM: IC50 (second compound 0.316 µM)
3.05 µM: IC50 (second compound 0.1 µM)
inactive: viability, T/C [1] 106% | viability, T/C [2] 99.8% | viability, T/C [3] 84.8% | viability, T/C [4] 68.4% | viability, T/C (second compound 0.1 µM, first compound 3.16 µM) 50.7% | viability, T/C (second compound 0.1 µM, first compound 10 µM) 25.9% | viability, T/C [5] 106% | viability, T/C [6] 105% | viability, T/C [7] 92.7% | viability, T/C [8] 74% | viability, T/C (second compound 0.316 µM, first compound 3.16 µM) 51.4% | viability, T/C (second compound 0.316 µM, first compound 10 µM) 27.7% | viability, T/C [9] 105% | viability, T/C [10] 99.1% | viability, T/C [11] 90.6% | viability, T/C [12] 73.1% | viability, T/C (second compound 1 µM, first compound 3.16 µM) 50.5% | viability, T/C (second compound 1 µM, first compound 10 µM) 25.7% | viability, T/C [13] 101% | viability, T/C [14] 96% | viability, T/C [15] 83.4% | viability, T/C [16] 72.4% | viability, T/C (second compound 3.16 µM, first compound 3.16 µM) 50.5% | viability, T/C (second compound 3.16 µM, first compound 10 µM) 22.6% | viability, T/C [17] 84.6% | viability, T/C [18] 87.3% | viability, T/C [19] 77% | viability, T/C [20] 61.8% | viability, T/C (second compound 10 µM, first compound 3.16 µM) 41.4% | viability, T/C (second compound 10 µM, first compound 10 µM) 23.2%
3.25 µM: IC50 (second compound 3.16 µM)

COc1cc(C2c3cc4c(cc3C(OC3OC5COC(C)OC5C(O)C3O)C3COC(=O)C23)OCO4)cc(OC)c1O (stereo not given) + NC1CCC(NC2CC2c2ccccc2)CC1
> 3 µM: IC50 (second compound 0.1 µM) | IC50 (second compound 0.316 µM) | IC50 (second compound 1 µM) | IC50 (second compound 3.16 µM) | IC50 (second compound 10 µM)
inactive: viability, T/C (second compound 0.1 µM, first compound 0.00949 µM) 92.9% | viability, T/C (second compound 0.1 µM, first compound 0.03 µM) 103% | viability, T/C (second compound 0.1 µM, first compound 0.0949 µM) 99.4% | viability, T/C (second compound 0.1 µM, first compound 0.3 µM) 100% | viability, T/C (second compound 0.1 µM, first compound 0.949 µM) 98.3% | viability, T/C (second compound 0.1 µM, first compound 3 µM) 91.1% | viability, T/C (second compound 0.316 µM, first compound 0.00949 µM) 101% | viability, T/C (second compound 0.316 µM, first compound 0.03 µM) 101% | viability, T/C (second compound 0.316 µM, first compound 0.0949 µM) 103% | viability, T/C (second compound 0.316 µM, first compound 0.3 µM) 100% | viability, T/C (second compound 0.316 µM, first compound 0.949 µM) 95.6% | viability, T/C (second compound 0.316 µM, first compound 3 µM) 94.4% | viability, T/C (second compound 1 µM, first compound 0.00949 µM) 98.8% | viability, T/C (second compound 1 µM, first compound 0.03 µM) 96.5% | viability, T/C (second compound 1 µM, first compound 0.0949 µM) 95.8% | viability, T/C (second compound 1 µM, first compound 0.3 µM) 96.6% | viability, T/C (second compound 1 µM, first compound 0.949 µM) 94.7% | viability, T/C (second compound 1 µM, first compound 3 µM) 91.3% | viability, T/C (second compound 3.16 µM, first compound 0.00949 µM) 96.9% | viability, T/C (second compound 3.16 µM, first compound 0.03 µM) 91.8% | viability, T/C (second compound 3.16 µM, first compound 0.0949 µM) 99.2% | viability, T/C (second compound 3.16 µM, first compound 0.3 µM) 97.3% | viability, T/C (second compound 3.16 µM, first compound 0.949 µM) 94.5% | viability, T/C (second compound 3.16 µM, first compound 3 µM) 86.1% | viability, T/C (second compound 10 µM, first compound 0.00949 µM) 93% | viability, T/C (second compound 10 µM, first compound 0.03 µM) 92% | viability, T/C (second compound 10 µM, first compound 0.0949 µM) 86.3% | viability, T/C (second compound 10 µM, first compound 0.3 µM) 90.3% | viability, T/C (second compound 10 µM, first compound 0.949 µM) 81.6% | viability, T/C (second compound 10 µM, first compound 3 µM) 82%

Nc1ncn(C2CC(O)C(CO)O2)c(=O)n1 (stereo not given) + NC1CCC(NC2CC2c2ccccc2)CC1
inactive: viability, T/C (second compound 0.1 µM, first compound 0.00316 µM) 109% | viability, T/C (second compound 0.1 µM, first compound 0.01 µM) 113% | viability, T/C [1] 73.4% | viability, T/C [2] 48.6% | viability, T/C [3] 26.1% | viability, T/C [4] 23.5% | viability, T/C (second compound 0.316 µM, first compound 0.00316 µM) 106% | viability, T/C (second compound 0.316 µM, first compound 0.01 µM) 91% | viability, T/C [5] 78.3% | viability, T/C [6] 53% | viability, T/C [7] 33.8% | viability, T/C [8] 18.9% | viability, T/C (second compound 1 µM, first compound 0.00316 µM) 105% | viability, T/C (second compound 1 µM, first compound 0.01 µM) 91.7% | viability, T/C [9] 74.6% | viability, T/C [10] 41% | viability, T/C [11] 28.2% | viability, T/C [12] 19.4% | viability, T/C (second compound 3.16 µM, first compound 0.00316 µM) 93.3% | viability, T/C (second compound 3.16 µM, first compound 0.01 µM) 83.3% | viability, T/C [13] 63.1% | viability, T/C [14] 40% | viability, T/C [15] 24.1% | viability, T/C [16] 20.8% | viability, T/C (second compound 10 µM, first compound 0.00316 µM) 63% | viability, T/C (second compound 10 µM, first compound 0.01 µM) 57.8% | viability, T/C [17] 43.1% | viability, T/C [18] 27.3% | viability, T/C [19] 17.2% | viability, T/C [20] 15.9%
0.0185 µM: IC50 (second compound 10 µM)
0.0597 µM: IC50 (second compound 3.16 µM)
0.126 µM: IC50 (second compound 0.316 µM)
0.0767 µM: IC50 (second compound 1 µM)
0.0827 µM: IC50 (second compound 0.1 µM)
